Target: 15-hydroxyprostaglandin dehydrogenase [NAD(+)] (Homo sapiens) (UniProt P15428)
Assay: ligand-induced stabilization of human HPGD – biophysical, DSF, SYPRO orange, purified protein (AID 388)
Details: at 10 µM, buffer 10 mM HEPES, pH 7.5, NaCl 150 mM, stronger effect = higher value

Chain of 15-hydroxyprostaglandin dehydrogenase [NAD(+)] (Homo sapiens) (P15428 whole entry, looked up): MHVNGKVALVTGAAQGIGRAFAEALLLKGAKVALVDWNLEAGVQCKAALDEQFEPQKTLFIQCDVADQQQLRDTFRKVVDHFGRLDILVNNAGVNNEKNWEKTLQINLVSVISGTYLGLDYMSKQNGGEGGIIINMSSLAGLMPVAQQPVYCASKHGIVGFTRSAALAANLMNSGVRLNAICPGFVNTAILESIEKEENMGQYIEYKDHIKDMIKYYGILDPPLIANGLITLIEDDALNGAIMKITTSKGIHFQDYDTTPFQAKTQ

Row | Tm shift [Celsius] | Tm shift (NADH 40 µM) [Celsius] | Compound
1 | 2.2 | – | CCc1nnc(NS(=O)(=O)c2ccc(NC(=O)c3ccc(Cl)cc3Cl)cc2)s1
2 | 2.9 | – | O=c1cc(-c2ccccc2)oc2cc(O)c(O)c(O)c12
3 | 2.35 | – | CC1(C)[C@@H](OC(=O)CCC(=O)O)CC[C@]2(C)[C@H]3C(=O)C=C4[C@@H]5C[C@@](C)(C(=O)O)CC[C@]5(C)CC[C@@]4(C)[C@]3(C)CC[C@@H]12
4 | 3.1 | – | O=C1CC(c2ccc(O)cc2)Oc2cc(O)cc(O)c21 (stereo unspecified)
5 | – | 2.5 | CN(CCOc1ccc(CC2SC(=O)NC2=O)cc1)c1ccccn1 (stereo unspecified)
6 | 2.11 | – | O=C1NC(=O)c2c1c1c3ccccc3[nH]c1c1[nH]c3cc(Br)ccc3c21
7 | 2.1 | – | COc1ccc2c(c1)c(CC(=O)O)c(C)n2C(=O)c1ccc(Cl)cc1

Further lines, the molecule ahead of its results:

Row | Compound | Tm shift [Celsius] | Tm shift (NADH 40 µM) [Celsius]
8 | C[C@@]1(c2ccc(O)cc2)CC(=O)c2c(O)cc(O)cc2O1 | 2.25 | –
9 | O=C(O)c1cccnc1Nc1cccc(C(F)(F)F)c1 | 2.1 | –
10 | O=c1c(-c2ccc(O)cc2)coc2cc(O)cc(O)c12 | 2.12 | –
11 | CC1=CC(=O)C=C(C)C1=O | 6.05 | –
12 | CCc1nnc(NS(=O)(=O)c2ccc(NC(=O)/C=C/c3ccc(F)cc3)cc2)s1 | 2.9 | –
13 | CCc1ccc(CCOc2ccc(CC3SC(=O)CC3=O)cc2)nc1 (stereo unspecified) | 2.28 | –
14 | COc1cc([C@@H]2Oc3cc([C@@H]4Oc5cc(O)cc(O)c5C(=O)[C@H]4C)ccc3O[C@H]2CO)ccc1O | 2.4 | –
15 | O=c1cc(-c2ccc(O)c(O)c2)oc2cc(O)cc(O)c12 | 2.19 | –
16 | Cc1c(O)cc(O)c2c1OC(c1ccc(O)c(O)c1)C(=O)C2=O (stereo unspecified) | 2.5 | –
